Like-named read-outs stand apart in the source and are kept apart here.
Assays:
[1] = biological target: T1, Electrophorus electricus acetylcholinesterase (eeAChE) (Electrophorus electricus, UniProt O42275); assay: biochemical; details: for Selectivity Index (SI): SI = IC50 of BChE/IC50 of AChE
T1 construct: purchased Sigma-Aldrich C3389
Protocol: (§1) Enzymes from Electrophorus electricus (eeAChE) (Sigma-Aldrich, Cat. No. C3389) and equine serum (Equus caballus) BuChE (eqBuChE) […]. Stock solutions of the test compounds were prepared in potassium phosphate buffer (0.1 M, pH 8.0). The reaction mixture consisted of Ellman’s reagent (5,5′-dithiobis (2-nitrobenzoic acid), DTNB), enzyme (0.03 U/mL of eeAChE or eqBuChE), and the test compound. Pre-incubation was performed at 30°C for 10 minutes, followed by the addition of 1 mM acetylthiocholine iodide (ATCI) or butyrylthiocholine iodide (BTCI) as substrates. The reaction mixture was further incubated for 15 minutes. […] All assays were conducted in triplicate. IC50 values were calculated by nonlinear regression of compound concentration versus percentage inhibition.
(§2) All experiments were performed in triplicate, and the results are expressed as SEM. IC50 values were determined using nonlinear regression analysis (GraphPad Prism). All statistical analyses were performed using GraphPad Prism version 9.5.1 (GraphPad Software, San Diego, CA, USA).

[2] = biological target: T2, equine serum butyrylcholinesterase (eqBuChE) (Equus caballus, UniProt P81908); assay: biochemical
T2 construct: equine serum (Equus caballus) BuChE (eqBuChE); purchased Sigma-Aldrich C3389; host or cells: equine serum
T2 sequence (P81908 whole entry): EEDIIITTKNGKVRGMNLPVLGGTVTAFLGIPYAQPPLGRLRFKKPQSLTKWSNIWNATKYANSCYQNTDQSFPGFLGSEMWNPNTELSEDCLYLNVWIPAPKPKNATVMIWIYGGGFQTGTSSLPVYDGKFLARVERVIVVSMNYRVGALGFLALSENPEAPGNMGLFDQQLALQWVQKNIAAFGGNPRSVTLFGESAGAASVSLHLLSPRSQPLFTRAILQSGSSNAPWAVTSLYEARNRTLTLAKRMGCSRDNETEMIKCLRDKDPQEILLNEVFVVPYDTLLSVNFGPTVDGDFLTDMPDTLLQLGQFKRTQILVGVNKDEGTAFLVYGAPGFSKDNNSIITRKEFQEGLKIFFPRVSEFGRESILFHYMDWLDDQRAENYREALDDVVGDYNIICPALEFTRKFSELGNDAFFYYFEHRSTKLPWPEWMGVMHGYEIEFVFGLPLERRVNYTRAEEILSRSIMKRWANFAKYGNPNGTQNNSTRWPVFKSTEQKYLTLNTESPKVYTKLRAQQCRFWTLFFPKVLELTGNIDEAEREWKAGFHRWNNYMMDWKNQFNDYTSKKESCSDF
Protocol: as §1, §2

[3] = Ellman's method, mean ± SEM, n = 3, read-out: IC50 (μM) ± SEM (eeAChE)
[4] = Ellman's method, mean ± SEM, n = 3, read-out: IC50 (μM) ± SEM eqBuChE

T1 sequence (O42275 24-633): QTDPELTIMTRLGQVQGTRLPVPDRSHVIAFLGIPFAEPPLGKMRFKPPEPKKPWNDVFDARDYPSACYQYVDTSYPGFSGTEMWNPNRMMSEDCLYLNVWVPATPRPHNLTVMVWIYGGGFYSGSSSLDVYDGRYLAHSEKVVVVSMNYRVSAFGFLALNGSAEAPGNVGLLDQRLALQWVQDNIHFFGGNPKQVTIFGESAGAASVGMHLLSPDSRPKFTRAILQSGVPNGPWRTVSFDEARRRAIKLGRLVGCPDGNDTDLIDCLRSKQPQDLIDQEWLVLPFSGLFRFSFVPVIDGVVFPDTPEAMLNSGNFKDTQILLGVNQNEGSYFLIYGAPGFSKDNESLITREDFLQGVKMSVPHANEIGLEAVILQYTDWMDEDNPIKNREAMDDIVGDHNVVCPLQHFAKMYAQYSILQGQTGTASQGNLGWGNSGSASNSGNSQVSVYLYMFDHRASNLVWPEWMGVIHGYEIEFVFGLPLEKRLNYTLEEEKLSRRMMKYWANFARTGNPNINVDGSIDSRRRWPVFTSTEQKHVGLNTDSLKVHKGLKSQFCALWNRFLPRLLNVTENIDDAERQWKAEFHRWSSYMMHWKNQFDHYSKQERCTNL

SMILES	IC50 [1, 3] [µM]	Selectivity Index (SI) [1]	IC50 [2, 4] [µM]	IC50 [1] [µM]	IC50 [2] [µM]
CC1(C)C=CC2=C(O1)C(=O)c1ccccc1C2=O [Dehydro-α-lapachone (4), Dehydro-α-lapachone]	2.64 ± 0.08	21.1	55.6 ± 1.41	–	–
COC(=O)C1(O)c2ccccc2C(=O)C1(O)CC=C(C)C (stereo not drawn) [Indanone derivative (5)]	–	0.45	–	53.2 ± 1.29	24.2 ± 1.04
CC(C)=CCC1=C(O)C(=O)c2ccccc2C1=O [Lapachol (1), Lapachol]	–	13.6	–	5.04 ± 0.24	68.3 ± 1.06
CC(C)=C(C)C1CC2(C)OC3=C(C(=O)c4ccccc4C3=O)C3C2C12C(=O)c1ccccc1C3(O)C2=O (stereo not drawn) [Peshawaraquinone (3), Peshawaraquinone]	0.9 ± 0.04	9.3	8.39 ± 0.14	–	–
CC1(C)CCC2=C(O1)C(=O)c1ccccc1C2=O [α-Lapachone (2), α-Lapachone]	11 ± 0.97	3.6	39.1 ± 0.97	–	–
